Experimental data reported in patent US10188634B2, “3-(3H-imidazo[4,5-C]pyridin-2-yl)-1 H-pyrazolo[4,3-B]pyridines and therapeutic uses thereof” (Samumed, LLC, priority 2015, dated 2019).

Key:
[1] = tested on: Wnt activity (Sp5-Luc reporter, human Sp5 promoter with eight TCF/LEF binding sites) in SW480 colon carcinoma cells; test: Screening assay for Wnt activity: Sp5-Luc reporter gene assay in SW480 cells; format: cell-based; conditions: for inhibition at 10 µM: read-out: percent inhibition at 10 μM (given for EC50 of >10 μM); for EC50: 10-point dose-response starting from 10 μM, overnight incubation
In short: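 Luminescence (BrightGlo) read after overnight 37 °C exposure of Sp5-Luc SW480 reporter cells, 4,000/well in 1% FBS, to compound dosed 1:3 over 10 points from 10 μM with 0.1% DMSO. Values normalized to DMSO-only cells, fitted with variable-slope four-parameter model; where EC50 exceeds 10 μM, % inhibition at 10 μM reported.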

IL-6 in THP-1 cells = test: Inhibition of IL-6 in LPS-stimulated THP-1 human monocyte cells (HTRF); format: cell-based; conditions: IL-6 HTRF; for EC50: 500 ng/mL LPS, 22 hours; for inhibition at 10 µM: LPS, read-out: percent inhibition in brackets (given for EC50 >10 μM)
In short: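 IL-6 was quantified by HTRF ratio after LPS (500 ng/mL, 22 h) stimulation of THP-1 monocytes pretreated 2 h with compound, 10-point 1:3 dilutions from 10 μM, 0.1% DMSO. Cells were held in 1% FBS for 24 h beforehand. Values normalised to DMSO; four-parameter EC50, or % inhibition at 10 μM above that.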

Row | Compound | inhibition at 10 µM [1] [%] | EC50 [1] [µM] | EC50 (IL-6 in THP-1 cells) [µM] | inhibition at 10 µM (IL-6 in THP-1 cells) [%]
1 | CN1CCN(c2cncc3[nH]c(-c4n[nH]c5ccc(-c6cncc(NC(=O)C7CCCC7)c6)nc45)nc23)CC1 [Compound 246, N-(5-(3-(7-(4-Methylpiperazin-1-yl)-3H-imidazo[4,5-c]pyridin-2-yl)-1H-pyrazolo[4,3-b]pyridin-5-yl)pyridin-3-yl)cyclopentanecarboxamide] | 3.9 | > 10 | > 10 | 0
2 | CN1CCN(c2cncc3[nH]c(-c4n[nH]c5ccc(-c6cncnc6)nc45)nc23)CC1 [Compound 251, 3-(7-(4-Methylpiperazin-1-yl)-3H-imidazo[4,5-c]pyridin-2-yl)-5-(pyrimidin-5-yl)-1H-pyrazolo[4,3-b]pyridine] | 14.4 | > 10 | > 10 | 31.8
3 | O=C(Nc1cncc(-c2ccc3[nH]nc(-c4nc5c(-c6ccsc6)cncc5[nH]4)c3n2)c1)c1ccccc1 [Compound 263, N-(5-(3-(7-(Thiophen-3-yl)-3H-imidazo[4,5-c]pyridin-2-yl)-1H-pyrazolo[4,3-b]pyridin-5-yl)pyridin-3-yl)benzamide] | 7.6 | > 10 | > 10 | 36.3
4 | CCNCc1cncc(-c2ccc3[nH]nc(-c4nc5c(-c6ccoc6)cncc5[nH]4)c3n2)c1 [Compound 286, N-((5-(3-(7-(Furan-3-yl)-3H-imidazo[4,5-c]pyridin-2-yl)-1H-pyrazolo[4,3-b]pyridin-5-yl)pyridin-3-yl)methyl)ethanamine] | 37.4 | > 10 | > 10 | 14.5
5 | CCCCC(=O)Nc1cncc(-c2ccc3[nH]nc(-c4nc5c(-c6ccoc6)cncc5[nH]4)c3n2)c1 [Compound 299, N-(5-(3-(7-(Furan-3-yl)-3H-imidazo[4,5-c]pyridin-2-yl)-1H-pyrazolo[4,3-b]pyridin-5-yl)pyridin-3-yl)pentanamide] | 14.7 | > 10 | > 10 | 48.6
6 | CCC(=O)Nc1cncc(-c2ccc3[nH]nc(-c4nc5c(-c6cccs6)cncc5[nH]4)c3n2)c1 [Compound 309, N-(5-(3-(7-(Thiophen-2-yl)-3H-imidazo[4,5-c]pyridin-2-yl)-1H-pyrazolo[4,3-b]pyridin-5-yl)pyridin-3-yl)propionamide] | 2.4 | > 10 | > 10 | 31.2
7 | CN(C)Cc1cncc(-c2ccc3[nH]nc(-c4nc5c(-c6cccs6)cncc5[nH]4)c3n2)c1 [Compound 321, N,N-dimethyl-1-(5-(3-(7-(thiophen-2-yl)-3H-imidazo[4,5-c]pyridin-2-yl)-1H-pyrazolo[4,3-b]pyridin-5-yl)pyridin-3-yl)methanamine] | 19.2 | > 10 | > 10 | 22.2
8 | c1csc(-c2cncc3[nH]c(-c4n[nH]c5ccc(-c6ccncc6)nc45)nc23)c1 [Compound 326, 5-(Pyridin-4-yl)-3-(7-(thiophen-2-yl)-3H-imidazo[4,5-c]pyridin-2-yl)-1H-pyrazolo[4,3-b]pyridine] | 12.7 | > 10 | > 10 | 22.3
9 | O=C(Nc1cncc(-c2ccc3[nH]nc(-c4nc5c(-c6cccs6)cncc5[nH]4)c3n2)c1)C1CC1 [Compound 328, N-(5-(3-(7-(Thiophen-2-yl)-3H-imidazo[4,5-c]pyridin-2-yl)-1H-pyrazolo[4,3-b]pyridin-5-yl)pyridin-3-yl)cyclopropanecarboxamide] | 3.7 | > 10 | > 10 | 40.6
10 | Cc1ccc(-c2cncc3[nH]c(-c4n[nH]c5ccc(-c6cncc(NC(=O)C(C)C)c6)nc45)nc23)s1 [Compound 373, N-(5-(3-(7-(5-Methylthiophen-2-yl)-3H-imidazo[4,5-c]pyridin-2-yl)-1H-pyrazolo[4,3-b]pyridin-5-yl)pyridin-3-yl)isobutyramide] | 16.1 | > 10 | > 10 | 41.3
11 | Cc1ccc(-c2cncc3[nH]c(-c4n[nH]c5ccc(-c6cncc(NC(=O)C7CCCC7)c6)nc45)nc23)s1 [Compound 386, N-(5-(3-(7-(5-Methylthiophen-2-yl)-3H-imidazo[4,5-c]pyridin-2-yl)-1H-pyrazolo[4,3-b]pyridin-5-yl)pyridin-3-yl)cyclopentanecarboxamide] | 8.7 | > 10 | 0.351 | 
12 | CCNCc1cncc(-c2ccc3[nH]nc(-c4nc5c(-c6cc(F)cc(NCCN(C)C)c6)cncc5[nH]4)c3n2)c1 [Compound 426, N^1-(3-(2-(5-(5-((Ethylamino)methyl)pyridin-3-yl)-1H-pyrazolo[4,3-b]pyridin-3-yl)-3H-imidazo[4,5-c]pyridin-7-yl)-5-fluorophenyl)-N^2,N^2-dimethylethane-1,2-diamine] | 8.8 | > 10 | 8.05 | 
13 | CCCCC(=O)Nc1cncc(-c2ccc3[nH]nc(-c4nc5c(-c6cc(F)cc(NCCN(C)C)c6)cncc5[nH]4)c3n2)c1 [Compound 439, N-(5-(3-(7-(3-((2-(Dimethylamino)ethyl)amino)-5-fluorophenyl)-3H-imidazo[4,5-c]pyridin-2-yl)-1H-pyrazolo[4,3-b]pyridin-5-yl)pyridin-3-yl)pentanamide] | 3.1 | > 10 | > 10 | 31.5
14 | CS(=O)(=O)NCc1cc(F)cc(-c2cncc3[nH]c(-c4n[nH]c5ccc(-c6cncc(NC(=O)c7ccccc7)c6)nc45)nc23)c1 [Compound 459, N-(5-(3-(7-(3-Fluoro-5-(methylsulfonamidomethyl)phenyl)-3H-imidazo[4,5-c]pyridin-2-yl)-1H-pyrazolo[4,3-b]pyridin-5-yl)pyridin-3-yl)benzamide] | 9.6 | > 10 | > 10 | 0
15 | CCCC(=O)Nc1cncc(-c2ccc3[nH]nc(-c4nc5c(-c6cc(F)cc(CNS(C)(=O)=O)c6)cncc5[nH]4)c3n2)c1 [Compound 465, N-(5-(3-(7-(3-Fluoro-5-(methylsulfonamidomethyl)phenyl)-3H-imidazo[4,5-c]pyridin-2-yl)-1H-pyrazolo[4,3-b]pyridin-5-yl)pyridin-3-yl)butyramide] | 28 | > 10 | > 10 | 28.6
16 | CS(=O)(=O)NCc1cc(F)cc(-c2cncc3[nH]c(-c4n[nH]c5ccc(-c6cncc(CNCc7ccccc7)c6)nc45)nc23)c1 [Compound 472, N-(3-(2-(5-(5-((Benzylamino)methyl)pyridin-3-yl)-1H-pyrazolo[4,3-b]pyridin-3-yl)-3H-imidazo[4,5-c]pyridin-7-yl)-5-fluorobenzyl)methanesulfonamide] | 20.1 | > 10 | > 10 | 39.3
17 | CS(=O)(=O)NCc1cc(F)cc(-c2cncc3[nH]c(-c4n[nH]c5ccc(-c6cncnc6)nc45)nc23)c1 [Compound 475, N-(3-Fluoro-5-(2-(5-(pyrimidin-5-yl)-1H-pyrazolo[4,3-b]pyridin-3-yl)-3H-imidazo[4,5-c]pyridin-7-yl)benzyl)methanesulfonamide] | 31.4 | > 10 | > 10 | 0
18 | Fc1cccc(-c2cncc3[nH]c(-c4n[nH]c5ccc(C6CCNCC6)nc45)nc23)c1 [Compound 477, 3-(7-(3-Fluorophenyl)-3H-imidazo[4,5-c]pyridin-2-yl)-5-(piperidin-4-yl)-1H-pyrazolo[4,3-b]pyridine] | 20 | > 10 | > 10 | 13
19 | Fc1cccc(-c2cncc3[nH]c(-c4n[nH]c5ccc(C6=CCNCC6)nc45)nc23)c1 [Compound 478, 3-(7-(3-Fluorophenyl)-3H-imidazo[4,5-c]pyridin-2-yl)-5-(1,2,3,6-tetrahydropyridin-4-yl)-1H-pyrazolo[4,3-b]pyridine] | 11 | > 10 | > 10 | 18.6
20 | Fc1cccc(-c2cncc3[nH]c(-c4n[nH]c5ccc(-c6cn[nH]c6)nc45)nc23)c1 [Compound 479, 3-(7-(3-Fluorophenyl)-3H-imidazo[4,5-c]pyridin-2-yl)-5-(1H-pyrazol-4-yl)-1H-pyrazolo[4,3-b]pyridine] | 9 | > 10 | > 10 | 15.7
21 | Cn1cc(-c2ccc3[nH]nc(-c4nc5c(-c6cccc(F)c6)cncc5[nH]4)c3n2)cn1 [Compound 480, 3-(7-(3-Fluorophenyl)-3H-imidazo[4,5-c]pyridin-2-yl)-5-(1-methyl-1H-pyrazol-4-yl)-1H-pyrazolo[4,3-b]pyridine] | 13 | > 10 | > 10 | 9.7
22 | Cc1ncc(-c2ccc3[nH]nc(-c4nc5c(-c6cccc(F)c6)cncc5[nH]4)c3n2)n1C [Compound 481, 5-(1,2-Dimethyl-1H-imidazol-5-yl)-3-(7-(3-fluorophenyl)-3H-imidazo[4,5-c]pyridin-2-yl)-1H-pyrazolo[4,3-b]pyridine] | 46 | > 10 | > 10 | 48.3
